Test [1] concerns the target 1,3-beta-glucan synthase (Candida, UniProt O13428). In words: (§1) Glucan Synthase Assay: The glucan synthase assay follows the incorporation of tritiated UDP-glucose into acid insoluble β-glucan as catalysed by the glucan synthase activity present in membrane preparations from Candida albicans and Aspergillus fumigatus. UDP-[3H]-glucose (ca 0.01 μCi) is added to 100 μl assay buffer (50 mM Tris-Cl, pH8.0, 8% glycerol, 1 mM EDTA, 1.5 mM KF, 1 mM DTT, 20 μM GTPγS, 600 μM UDP-glucose) and the reaction initiated by the addition of 2.5 μl of enzyme preparation. After incubation at 30°C. for 120 minutes, 10 μl of 30 mg/ml BSA is added with mixing and the reaction is terminated with 110 μl ice-cold 20% TCA. The precipitate is collected on a GF/B filter plate and washed three times with 200 μl water. Once dry, 200 μl of Microscint20 is added to each well and the plate is read on a Top-count scintillation counter.

The target of test [2] is 1,3-beta-glucan synthase (Aspergillus, UniProt Q4WLT4). Described as §1.

Broadly, the IC50 is the midpoint of a concentration-inhibition curve. A lower IC50 goes with greater potency.

The structures appear in SMILES notation.

Sequence of 1,3-beta-glucan synthase (Aspergillus, UniProt Q4WLT4) (Q4WLT4 whole entry): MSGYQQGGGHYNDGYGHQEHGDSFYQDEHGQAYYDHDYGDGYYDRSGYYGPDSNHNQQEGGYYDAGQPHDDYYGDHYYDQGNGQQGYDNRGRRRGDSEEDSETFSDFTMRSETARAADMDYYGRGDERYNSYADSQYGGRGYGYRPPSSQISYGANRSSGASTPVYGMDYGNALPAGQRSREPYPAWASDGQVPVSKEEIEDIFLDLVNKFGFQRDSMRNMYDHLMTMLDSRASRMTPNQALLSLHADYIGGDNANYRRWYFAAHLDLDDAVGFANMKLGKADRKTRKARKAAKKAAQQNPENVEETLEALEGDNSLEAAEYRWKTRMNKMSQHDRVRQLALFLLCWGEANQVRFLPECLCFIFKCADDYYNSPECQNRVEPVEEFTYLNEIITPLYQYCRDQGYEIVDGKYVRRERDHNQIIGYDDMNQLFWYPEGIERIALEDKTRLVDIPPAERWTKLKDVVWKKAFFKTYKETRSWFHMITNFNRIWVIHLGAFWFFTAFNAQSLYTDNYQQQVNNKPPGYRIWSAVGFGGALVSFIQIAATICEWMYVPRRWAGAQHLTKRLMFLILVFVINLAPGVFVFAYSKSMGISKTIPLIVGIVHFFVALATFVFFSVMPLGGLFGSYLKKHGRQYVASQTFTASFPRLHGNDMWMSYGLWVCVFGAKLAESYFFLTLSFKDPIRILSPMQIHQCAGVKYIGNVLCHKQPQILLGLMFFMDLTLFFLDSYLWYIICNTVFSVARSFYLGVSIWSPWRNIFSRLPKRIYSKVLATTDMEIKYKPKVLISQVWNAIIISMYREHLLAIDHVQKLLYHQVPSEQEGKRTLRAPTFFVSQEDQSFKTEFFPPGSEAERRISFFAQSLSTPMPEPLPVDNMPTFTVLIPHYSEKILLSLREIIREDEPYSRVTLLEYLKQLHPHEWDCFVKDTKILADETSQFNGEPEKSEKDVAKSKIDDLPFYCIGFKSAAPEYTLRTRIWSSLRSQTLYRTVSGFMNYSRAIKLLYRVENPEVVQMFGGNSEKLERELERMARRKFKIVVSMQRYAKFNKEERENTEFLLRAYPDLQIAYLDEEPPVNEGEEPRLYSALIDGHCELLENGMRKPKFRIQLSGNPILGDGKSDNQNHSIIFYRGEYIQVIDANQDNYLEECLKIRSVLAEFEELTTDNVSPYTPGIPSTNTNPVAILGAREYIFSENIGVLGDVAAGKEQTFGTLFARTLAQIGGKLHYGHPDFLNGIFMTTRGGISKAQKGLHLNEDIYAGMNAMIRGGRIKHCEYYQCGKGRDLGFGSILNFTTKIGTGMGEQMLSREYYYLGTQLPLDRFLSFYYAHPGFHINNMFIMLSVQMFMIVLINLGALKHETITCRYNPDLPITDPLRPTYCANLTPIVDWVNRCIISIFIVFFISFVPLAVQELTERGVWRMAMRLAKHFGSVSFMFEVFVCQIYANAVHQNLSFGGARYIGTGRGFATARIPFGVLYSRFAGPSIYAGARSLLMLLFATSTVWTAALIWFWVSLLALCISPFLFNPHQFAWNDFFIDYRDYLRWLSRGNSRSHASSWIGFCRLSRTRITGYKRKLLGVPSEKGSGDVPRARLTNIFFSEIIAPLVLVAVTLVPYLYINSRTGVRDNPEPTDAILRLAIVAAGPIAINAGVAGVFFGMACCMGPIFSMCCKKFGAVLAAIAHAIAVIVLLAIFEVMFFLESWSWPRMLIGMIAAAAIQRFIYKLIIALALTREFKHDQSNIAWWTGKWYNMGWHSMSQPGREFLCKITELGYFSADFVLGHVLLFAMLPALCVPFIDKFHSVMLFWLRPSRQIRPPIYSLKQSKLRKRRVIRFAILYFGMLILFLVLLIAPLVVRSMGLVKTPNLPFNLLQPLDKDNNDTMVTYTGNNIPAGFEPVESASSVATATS
Sequence of 1,3-beta-glucan synthase (Candida, UniProt O13428) (O13428 whole entry): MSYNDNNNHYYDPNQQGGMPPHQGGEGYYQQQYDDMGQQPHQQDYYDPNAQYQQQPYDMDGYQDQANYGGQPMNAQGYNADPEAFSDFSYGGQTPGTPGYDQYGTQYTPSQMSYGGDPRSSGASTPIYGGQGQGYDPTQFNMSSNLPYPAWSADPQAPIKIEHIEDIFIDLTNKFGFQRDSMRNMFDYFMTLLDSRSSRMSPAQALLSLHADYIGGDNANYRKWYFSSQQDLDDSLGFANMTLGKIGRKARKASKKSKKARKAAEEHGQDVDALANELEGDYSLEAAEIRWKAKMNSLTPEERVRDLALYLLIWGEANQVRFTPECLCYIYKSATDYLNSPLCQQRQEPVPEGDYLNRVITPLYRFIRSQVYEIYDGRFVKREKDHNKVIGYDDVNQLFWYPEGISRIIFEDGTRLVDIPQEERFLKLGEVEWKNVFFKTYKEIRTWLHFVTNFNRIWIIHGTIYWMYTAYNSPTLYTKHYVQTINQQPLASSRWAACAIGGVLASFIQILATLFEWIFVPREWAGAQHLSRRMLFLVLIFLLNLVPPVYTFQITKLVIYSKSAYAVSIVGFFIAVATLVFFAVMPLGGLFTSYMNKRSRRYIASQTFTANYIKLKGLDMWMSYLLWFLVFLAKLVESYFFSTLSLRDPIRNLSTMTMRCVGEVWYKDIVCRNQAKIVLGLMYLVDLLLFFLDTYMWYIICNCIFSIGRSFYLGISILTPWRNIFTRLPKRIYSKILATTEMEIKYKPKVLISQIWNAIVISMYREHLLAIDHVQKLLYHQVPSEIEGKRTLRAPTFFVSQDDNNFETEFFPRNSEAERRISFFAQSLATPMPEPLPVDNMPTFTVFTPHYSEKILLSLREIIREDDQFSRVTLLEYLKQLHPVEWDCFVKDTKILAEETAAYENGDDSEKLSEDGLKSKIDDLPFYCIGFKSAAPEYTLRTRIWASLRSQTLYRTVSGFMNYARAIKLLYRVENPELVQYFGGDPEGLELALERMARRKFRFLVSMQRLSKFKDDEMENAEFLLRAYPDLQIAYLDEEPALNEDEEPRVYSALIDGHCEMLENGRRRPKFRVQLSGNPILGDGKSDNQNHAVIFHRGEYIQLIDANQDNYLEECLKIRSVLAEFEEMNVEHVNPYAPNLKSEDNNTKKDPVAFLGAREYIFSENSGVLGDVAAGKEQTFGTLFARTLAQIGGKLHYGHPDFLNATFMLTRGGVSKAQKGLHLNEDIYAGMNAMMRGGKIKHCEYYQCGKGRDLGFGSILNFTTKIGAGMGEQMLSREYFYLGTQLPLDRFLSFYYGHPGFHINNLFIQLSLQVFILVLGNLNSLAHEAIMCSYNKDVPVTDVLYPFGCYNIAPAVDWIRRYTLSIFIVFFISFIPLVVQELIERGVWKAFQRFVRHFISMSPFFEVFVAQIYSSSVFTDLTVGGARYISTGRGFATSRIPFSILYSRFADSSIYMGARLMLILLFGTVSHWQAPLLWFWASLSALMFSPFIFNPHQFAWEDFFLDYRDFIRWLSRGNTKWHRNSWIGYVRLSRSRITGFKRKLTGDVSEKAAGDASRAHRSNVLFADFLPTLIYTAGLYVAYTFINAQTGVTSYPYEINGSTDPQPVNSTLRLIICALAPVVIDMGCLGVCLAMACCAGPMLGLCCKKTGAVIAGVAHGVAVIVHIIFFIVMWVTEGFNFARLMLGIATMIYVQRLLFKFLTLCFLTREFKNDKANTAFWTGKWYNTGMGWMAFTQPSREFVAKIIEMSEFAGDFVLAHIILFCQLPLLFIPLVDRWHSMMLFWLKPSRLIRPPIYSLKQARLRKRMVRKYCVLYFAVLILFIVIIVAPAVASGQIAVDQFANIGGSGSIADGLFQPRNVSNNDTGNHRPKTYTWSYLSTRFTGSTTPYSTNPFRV

Regarding `N[C@H]1CCN(C(=O)CN(CC(=O)NCc2cccc(Cl)c2)c2ccc(Oc3ccccc3)cc2)C1`, the values for the 50% inhibitory concentration (IC50) in test [1] and in test [2] were 8 µM and 5.6 µM, respectively.
